We go through one compound from patent US20240166626A1, “Compounds and Methods for Preventing, Treating, or Ameliorating Airway Disease” (THOMAS JEFFERSON UNIVERSITY, priority 2021, published 2024).

The structures appear in SMILES notation.

The target in this assay is β2AR-Gs (Homo sapiens, UniProt P07550). Nature of the assay: Gs activation by [35S]GTPγS binding, reconstituted β2AR-Gs in lipid bicelles. Format: biochemical. The following applies: 10 μM DFPQ, 1 μM ISO, FIG. 5E. As for the experimental part: FIGS. 5A-5E illustrate certain embodiments of the disclosure. FIG. 5A: Primary titration screening data of DFPQ. […] FIGS. 5C and 5D: […] Wells were read every 2 min post agonist addition. FIG. 5E: […] Bound [^35S]-GTPγS was collected by rapid filtration on GF/B filters, washed 4 times with 4 ml of cold GTPγS wash buffer and analyzed by liquid scintillation. […]® ADRB2 cells (DiscoveRx) were maintained with the AssayCompleteTM Cell Culture kit (DiscoveRx catalog #92-[…]). […] HEK 293 cells stably overexpressing β2AR included 250 μg/ml G418. Cells were incubated at 37° C. in a humidified incubator with 5% CO2. […] Cells were read every three minutes for 18 minutes on a PolarStar Optima plate reader (BMG) to establish peak signal. […] Luminescence was determined at room temperature (23-25° C.) on a PolarStar Optima plate reader (BMG). […] Relative assay bias was calculated from the ratio of normalized cAMP and arrestin recruitment responses. […] BRET was measured using a Tecan Infinite F500 microplate reader. […] Bound [35 S]GTPγS was collected by rapid filtration on GF/B filters, washed 4 times with 4 ml of cold GTPγS wash buffer and analyzed by liquid scintillation counting. […] Immunoprecipitated proteins were separated by SDS-PAGE and analyzed by western blot using a β2AR C-terminal tail or phospho-specific antibody. […] Band intensity was measured by densitometry using ImageJ. […]
A general note: GTPγS is a poorly hydrolysed GTP analogue; its binding reports G protein activation.

β2AR-Gs, sequence (P07550 whole entry): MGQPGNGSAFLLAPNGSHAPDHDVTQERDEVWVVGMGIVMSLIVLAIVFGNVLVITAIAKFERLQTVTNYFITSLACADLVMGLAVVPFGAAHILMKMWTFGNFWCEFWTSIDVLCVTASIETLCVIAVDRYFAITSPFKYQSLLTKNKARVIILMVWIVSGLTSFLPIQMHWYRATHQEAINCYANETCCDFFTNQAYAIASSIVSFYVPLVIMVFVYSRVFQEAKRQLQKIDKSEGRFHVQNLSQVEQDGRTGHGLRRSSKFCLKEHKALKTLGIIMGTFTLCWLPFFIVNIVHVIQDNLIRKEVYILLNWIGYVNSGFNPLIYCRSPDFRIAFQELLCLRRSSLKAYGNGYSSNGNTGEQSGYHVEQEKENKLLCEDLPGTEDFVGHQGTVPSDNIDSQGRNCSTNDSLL
β2AR-Gs, sequence (P63092 whole entry partner): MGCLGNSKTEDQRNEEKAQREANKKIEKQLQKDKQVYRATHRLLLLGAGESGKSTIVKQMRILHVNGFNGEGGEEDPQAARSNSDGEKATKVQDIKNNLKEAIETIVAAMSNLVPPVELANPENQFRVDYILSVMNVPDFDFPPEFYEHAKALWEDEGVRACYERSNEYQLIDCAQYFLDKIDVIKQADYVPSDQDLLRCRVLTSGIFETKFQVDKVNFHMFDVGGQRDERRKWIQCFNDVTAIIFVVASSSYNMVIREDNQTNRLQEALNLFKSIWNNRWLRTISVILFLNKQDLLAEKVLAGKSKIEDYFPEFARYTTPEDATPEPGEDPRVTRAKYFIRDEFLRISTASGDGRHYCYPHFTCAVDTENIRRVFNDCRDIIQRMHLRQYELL
β2AR-Gs, sequence (P62873 whole entry partner): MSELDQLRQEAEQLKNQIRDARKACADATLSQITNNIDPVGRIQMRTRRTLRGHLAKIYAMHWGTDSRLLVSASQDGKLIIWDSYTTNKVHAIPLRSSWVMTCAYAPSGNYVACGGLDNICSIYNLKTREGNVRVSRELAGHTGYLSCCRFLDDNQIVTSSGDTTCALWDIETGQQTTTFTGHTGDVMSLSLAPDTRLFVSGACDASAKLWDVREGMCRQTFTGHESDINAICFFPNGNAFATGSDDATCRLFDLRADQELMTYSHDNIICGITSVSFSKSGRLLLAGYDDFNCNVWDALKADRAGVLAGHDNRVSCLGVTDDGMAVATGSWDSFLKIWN
β2AR-Gs, sequence (P59768 2-68 partner): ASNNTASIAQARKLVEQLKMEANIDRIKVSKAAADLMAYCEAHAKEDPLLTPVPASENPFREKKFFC

Regarding `Fc1ccc(Nc2nc(NC3CCCCC3)c3ccccc3n2)cc1F` [DFPQ, N^4-cyclohexyl-N^2-(3,4-difluorophenyl)quinazoline-2,4-diamine], the “effect on ISO-dependent activation of purified Gs by the β2AR (GTPγS binding)” value is on record as “no effect”.
